In brackets after ≈: the same amount, converted by molar mass. Non-standard residues stand in square brackets, D forms with d. Residues, ends and D or L forms follow the SMILES beside them. No end group written: not given here.

One data set concerns E. coli ATCC25922. The class given is cell-based. From the text:
(§1) NET1, NET2, NET3, and NET4 peptide antibiotics were used in the experiments. For the purpose of the study, both clinical isolates Methicillin-Resistant S. aureus (MRSA), Vancomycin-resistant Enterococcus (VRE), E. coli ER2566, E. coli 13846 bacteria and ATCC strains S. aureus and E. coli bacteria were used in the MIC study. All strains used in this study have been deposited in a strain collection of the Research Laboratory of Acibadem Mehmet Ali Aydinlar University. For experiment 0.5 McFarland bacterial suspension was prepared in Müeller Hinton Broth (MHB) media. In the 96-well plate, serial dilutions of peptide antibiotics starting from 512 to 0 μg/mL were made in MHB media and added 5 µl of bacterial suspensions. After incubated overnight at 37°C, results were evaluated according to turbidity (Teh et al. [2017]). Ampicillin was used as positive controls.

In a further data set the test system is E. coli ER2566. The class given is cell-based.
From the text: as §1

The next data set concerns E. coli NTCC13846. The class given is cell-based.
From the text: as §1

For another data set, the system named is S. aureus ATCC25923. The class given is cell-based.
From the text: as §1

The subject of another data set is S. aureus ATCC29213. The format is cell-based.
From the text: as §1

A further data set deals with MRSA. The class given is cell-based, Methicillin-Resistant S. aureus.
From the text: as §1

For a further data set, the system named is VRE. The class given is cell-based, Vancomycin-resistant Enterococcus.
From the text: as §1

The next data set addresses Proteinase K (Parengyodontium album, UniProt P06873). Description: Protease resistance, Proteinase K treatment with HPLC analysis. The following applies: analytical HPLC. The class given is in vitro ADME. The procedure: Proteinase K was used for testing the resistance of the designed peptides to proteases, since Proteinase K, a serine protease with broad-spectrum cleavage activity that preferentially cleaves aliphatic and aromatic amino acid residues, is widely used in the literature to determine the protease resistance of antimicrobial peptides (Lucio et al. [2017], Wang et al. [2019]). Afterwards, HPLC characterization was performed to understand the effect of Proteinase K on peptides.

A further data set deals with erythrocytes. The format is cell-based. As to the method: Hemolytic activity assays were carried out using erythrocytes, using triton X-100 as lysis control agent. Hemolytic activities were analyzed by reading each well with a plate reader spectrophotometer device at 414 nm and the % lysis rate was calculated in Microsoft Excel according to the following formula (Eren et al. [2008]). Lysis%=[OD414-OD414blank]/[OD414totallysis-OD414blank]×100

A further data set in a line: in vitro. The class given is cell-based. From the text: (§2) MTT Cell Proliferation Kit (Sigma), a colorimetric method, was used for this test to evaluate the damage that peptides can cause in eukaryotic cells and all cell lines used in this study have been deposited in a collection of the Research Laboratory of Acibadem Mehmet Ali Aydinlar University. The cell lines of 3T3 (ATCC CRL-1658) and HaCaT (ATCC PCS-200-011) were revived under appropriate culture conditions and made ready for the experiment. The final concentration of peptides reached 64 to 0.5 μg/mL. Samples were worked in triplicates for each concentration. Cells incubated without peptide-treatment under the same conditions were used as a control. Magainin II, a known natural AMP that has no cytotoxic effects, was used as a positive control (Bacalum and Radu [2015]). The results were analyzed by reading them with a 96-well plate reader at 550 and 690 nm.

Another data set relates to 3T3 cell line. Briefly: in vitro. The class given is cell-based.
From the text: as §2

The next data set relates to HaCaT cell line. Description: in vitro. The format is cell-based.
From the text: as §2

Data set [1] relates to MRSA biofilm. Briefly: Antibiofilm activity, conventional crystal violet (CV) method. The format is cell-based, Methicillin-resistant S. aureus. The procedure:
There was 90 µL of 10^6 CFU/mL MRSA in MHB media with fructose transferred into wells. Then, 10 µL of 1:2 serial dilutions of the antimicrobial peptides (1280–0 µg/mL) was added in wells. So that, final concentrations of peptides were 128–0 µg/mL. Plates were incubated at 37°C overnight. After overnight incubation, they were analyzed with conventional CV method. For this purpose, the bacterial cultures were removed, and wells were washed with distilled water. 200 µl of 1% CV dye was added to each well and incubated at room temperature for 15 min in the dark. Then, CV dye was removed, and wells were washed with water. After dried the plate in an oven at 45–50°C, 33% acetic acid was added into wells to dissolve the dye and wells were spectrophotometrically read by Varioscan (Thermo, USA) at 590 nm (Stepanović et al. [2000]). Biofilm inhibiton rates (%) were calculated by the following formula (Liu et al. [2021]): (1-A590ofwellstreatedwithpeptides/[…])×100
Before this calculation, the values obtained from all wells were subtracted from the value from the empty wells (Blank).

Data set [2] has as its system MRSA biofilm. Briefly: Antibiofilm activity, CoMIC method. The class given is cell-based, Methicillin-resistant S. aureus. The conditions noted are these: peptides added just before the start of biofilm formation. As to the method:
Ninety microliters of 0.5 McF Methicillin-resistant S. aureus (MRSA) (1.5×10^8 CFU/mL) in Congo Red Broth media with fructose was transferred into wells. Plates were incubated at 37°C. At the time just before the start of biofilm formation as optimized in Fig. 4, 10 µL of 1:2 serial dilutions of the antimicrobial peptides (2560–0 µg/mL) was added in wells. So that, final concentrations of peptides were 256–0 µg/mL. Incubation of media continued overnight. Then, wells were evaluated according to their black color formation.

The subject of another data set is E. coli. Briefly: SEM of cell membrane integrity. The class given is cell-based. The following applies: 16 µg/mL peptide, 10^5 CFU/mL, 37°C, 4–5 h. The procedure:
The effect of NET1 peptides on the integrity of E. coli cell membranes was shown by SEM (Wang et al. [2018]). […] Peptide molecules were mixed with 10^5 CFU/mL of E. coli and incubated at 37°C for 4–5 h. […] After incubation, 20 µL of the mixture containing peptide antibiotics and bacteria was applied to a dialysis membrane. Then, it was fixed and imaged by the SEM microscope. As a negative control, bacteria which was not treated with peptide molecules were also used.

The next data set relates to Staphylococcus aureus. Further details: method as in Dean et al. [2011]. The conditions noted are these: ref Dean et al. [2011]; cited from earlier work.

Proteinase K, sequence (P06873 106-384): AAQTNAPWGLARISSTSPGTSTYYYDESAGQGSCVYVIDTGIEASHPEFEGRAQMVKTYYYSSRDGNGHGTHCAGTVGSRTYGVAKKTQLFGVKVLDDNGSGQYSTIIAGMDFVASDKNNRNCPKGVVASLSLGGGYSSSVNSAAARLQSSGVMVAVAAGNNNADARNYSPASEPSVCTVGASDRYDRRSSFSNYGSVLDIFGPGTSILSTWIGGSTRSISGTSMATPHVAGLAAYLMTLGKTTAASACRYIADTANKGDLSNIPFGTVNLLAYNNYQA

With `CC(C)C[C@@H](NC(=O)[C@H](CCCNC(=N)N)NC(=O)[C@@H](CC(C)C)NC(=O)[C@@H](CC(C)C)NC(=O)[C@@H](CC(C)C)NC(=O)[C@@H](N)CCCNC(=N)N)C(=O)N[C@H](CC(C)C)C(=O)N[C@@H](CCCNC(=N)N)C(=O)N[C@@H](CCCNC(=N)N)C(=O)N[C@H](CC(C)C)C(=O)N[C@H](CC(C)C)C(=O)N[C@@H](CCCNC(=N)N)C(=O)N[C@H](CC(C)C)C(=O)N[C@H](CC(C)C)C(=O)N[C@H](CC(C)C)C(=O)N[C@@H](CCCNC(=N)N)C(N)=O` [NET1, RLLLRLLRRLLRLLLR-NH2] (H-R[dL][dL][dL]R[dL][dL]RR[dL][dL]R[dL][dL][dL]R-NH2; N-terminus assumed), the MIC (as a rule, the smallest concentration in the dilution series that meets the test's criterion for growth inhibition) against E. coli ATCC25922 was 2 µg/mL (≈ 0.959 µM); against E. coli ER2566, less than 0.25 µg/mL; against E. coli NTCC13846, 4 µg/mL (≈ 1.92 µM); in the data set with S. aureus ATCC25923, 4 µg/mL (≈ 1.92 µM); in the data set with S. aureus ATCC29213 it was 2 µg/mL (≈ 0.959 µM); in the data set on MRSA it was 2 µg/mL (≈ 0.959 µM). This molecule had an MIC against VRE of 0.5 µg/mL (≈ 0.24 µM). The “resistance to proteases (HPLC after proteinase K treatment)” value at Proteinase K is “not fractionated by proteases”. In addition, in the data set on erythrocytes, the “HC50 value as times the MIC value” is recorded as 16–32 times. Moreover, the “therapeutic index for hemolytic activities” value in the data set on erythrocytes is on record as 32. The IC50 (commonly the concentration at which inhibition is half-maximal) in “in vitro” (human) came out at 64 µg/mL (≈ 30.7 µM); in the data set “in vitro” (mouse), 32 µg/mL (≈ 15.3 µM). For the same molecule, the “therapeutic index for cytotoxic activities” value in the data set with 3T3 cell line worked out at 16; in the data set with HaCaT cell line, 32. Also, the “IC50 value as times the MIC value” in the data set on HaCaT cell line was 16-32 times. Further, in the data set with MRSA biofilm [1] (CV method), the “concentration that provided over 50% biofilm inhibition” value is reported as 2 µg/mL. In addition, the “Peptide concentration inhibiting the biofilm at 100%, Crystal Violet” value in the data set on MRSA biofilm [1] (peptides added at the very beginning of culture) came out at 4 µg/mL. Besides, the “Peptide concentration inhibiting the biofilm at 100%, CoMIC” value in the data set with MRSA biofilm [2] is 64 µg/mL. Moreover, the “effect on E. coli cells seen by SEM” value in the data set on E. coli was “lethal to E. coli”.

On to “LL-37: LL-37 peptide, only D-form compared with only L-form in a cited study (LLGDFFRKSKEKIGKEFKRIVQRIKDFLRNLVPRTES; not fully specified; also: all-D and all-L forms; UniProt P49913 134-170, looked up)”, for which the “activity of the D-form, times lower than L-form” value in the data set on Staphylococcus aureus is recorded as 10 times.

These data come from publication PMC11068671, “New-generation biofilm effective antimicrobial peptides and a real-time anti-biofilm activity assay: CoMIC” (Applied Microbiology and Biotechnology, 2024).
